The values below come from publication PMC11528067, “Structural Bases of Dihydroxy Acid Dehydratase Inhibition and Biodesign for Self-Resistance” (Biodesign Research, 2024).

Each structure is given as a SMILES string. Several values for one entry are separate records, joined by “and”; a condition that tells them apart may be missing. Identical values can stand only once.

Experiment [1] addresses T1, AthDHAD (Arabidopsis thaliana, UniProt Q9LIR4).
T1 construct: made in house; host or cells: E. coli BL21(DE3)
T1 sequence (Q9LIR4 35-608): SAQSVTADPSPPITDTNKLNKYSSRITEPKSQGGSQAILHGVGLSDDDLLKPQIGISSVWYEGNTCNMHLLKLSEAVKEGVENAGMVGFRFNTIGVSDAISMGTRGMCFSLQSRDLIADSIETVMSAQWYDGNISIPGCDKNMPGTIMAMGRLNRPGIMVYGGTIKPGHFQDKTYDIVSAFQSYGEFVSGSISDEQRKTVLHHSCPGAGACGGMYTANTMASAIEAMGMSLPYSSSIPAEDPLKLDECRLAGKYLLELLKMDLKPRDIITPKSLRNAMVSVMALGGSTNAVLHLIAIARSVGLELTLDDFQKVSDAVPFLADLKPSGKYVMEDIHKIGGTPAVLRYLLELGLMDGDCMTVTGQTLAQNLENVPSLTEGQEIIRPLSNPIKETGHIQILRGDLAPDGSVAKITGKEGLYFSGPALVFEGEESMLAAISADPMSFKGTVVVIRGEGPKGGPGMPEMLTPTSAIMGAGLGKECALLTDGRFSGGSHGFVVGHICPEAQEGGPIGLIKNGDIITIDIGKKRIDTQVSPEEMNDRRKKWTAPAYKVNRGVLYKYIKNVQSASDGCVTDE
Nature of the experiment: In vitro activity and AA inhibition assay of AthDHAD. The class given is biochemical, A. thaliana. The note with it: AthDHAD wild type. As to the method:
(§1) In vitro activity assays were carried out in 25 μl of reaction mixture containing A10 buffer without NaCl. The Michaelis–Menten constants (kcat, KM) for each enzyme were calculated by fitting the following formula to the observed reaction rate. V=VmaxS/KM+S Vmax=kcatE0
(§2) The inhibition percentages of AA on AthDHADs were determined using in vitro biochemical assays and calculated with the following equation:
(§3) Inhibition percentage = 100 − 100 × (initial reaction rate with AA/initial reaction rate without AA)
(§4) The inhibition assays were conducted with either 10 mM (±)-sodium-α,β-dihydroxyisovalerate (DHI) or 10 mM (±)-sodium-α,β-dihydroxymethylvalerate hydrate (DHMV), along with 0.5 μM of purified AthDHAD enzyme or its mutants. The reaction was initiated by adding the corresponding enzymes, followed by a 20-min incubation at 28°C. To halt the reactions, an equal volume of acetonitrile was introduced. Subsequently, approximately 0.04 volumes of 100 mM phenylhydrazine were added to facilitate the derivatization of the product, either 2-keto-isovalerate or 2-keto-3-methylvalerate, at room temperature for 30 min. For HPLC analysis, 10 μl of the reaction mixture was utilized.

A further experiment concerns the target T2, AthDHAD-V178L-V497L (Arabidopsis thaliana, UniProt Q9LIR4, V212L/V531L).
T2 construct: made in house; host or cells: E. coli BL21(DE3)
The experiment can be described thus: In vitro activity and AA inhibition assay of AthDHAD double mutant V178L/V497L. The class given is biochemical, A. thaliana. How it is done: as §1, §2, §3, §4

Another experiment has as its target T3, AthDHAD-V178I (Arabidopsis thaliana, UniProt Q9LIR4, V212I).
T3 construct: made in house; host or cells: E. coli BL21(DE3)
Nature of the experiment: In vitro activity and AA inhibition assay of AthDHAD mutant V178I. The note with it: DHI as substrate (10 mM), 0.5 μM enzyme. The class given is biochemical, A. thaliana. How it is done: as §1, §2, §3, §4

The test system of another experiment is AstD. The note with it: cited from earlier work.
The next experiment concerns the target T4, AthDHAD-V497I (Arabidopsis thaliana, UniProt Q9LIR4, V531I).
T4 construct: made in house; host or cells: E. coli BL21(DE3)
The experiment can be described thus: In vitro activity and AA inhibition assay of AthDHAD mutant V497I. Type of experiment: biochemical, A. thaliana. The note with it: DHI as substrate (10 mM), 0.5 μM enzyme. As to the method:
as §1, §2, §3, §4

A further experiment deals with T5, AthDHAD-I177L (Arabidopsis thaliana, UniProt Q9LIR4, I211L).
T5 construct: made in house; host or cells: E. coli BL21(DE3)
T5 sequence (Q9LIR4 35-608 I211L): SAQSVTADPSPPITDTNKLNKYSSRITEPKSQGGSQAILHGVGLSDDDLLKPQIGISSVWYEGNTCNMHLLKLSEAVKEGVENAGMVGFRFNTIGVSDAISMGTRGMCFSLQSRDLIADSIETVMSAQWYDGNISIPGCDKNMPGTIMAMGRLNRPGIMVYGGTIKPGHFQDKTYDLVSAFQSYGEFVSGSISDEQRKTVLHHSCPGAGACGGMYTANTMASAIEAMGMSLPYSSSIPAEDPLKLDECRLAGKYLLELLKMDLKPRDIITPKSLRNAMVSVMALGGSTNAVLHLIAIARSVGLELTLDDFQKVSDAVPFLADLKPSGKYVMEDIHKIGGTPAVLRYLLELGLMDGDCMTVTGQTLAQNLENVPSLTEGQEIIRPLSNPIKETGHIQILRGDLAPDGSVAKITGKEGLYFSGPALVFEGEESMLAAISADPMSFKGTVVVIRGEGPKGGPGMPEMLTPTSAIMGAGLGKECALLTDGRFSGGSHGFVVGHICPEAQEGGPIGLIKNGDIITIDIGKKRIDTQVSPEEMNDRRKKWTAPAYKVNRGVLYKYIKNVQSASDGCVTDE
Nature of the experiment: In vitro activity and AA inhibition assay of AthDHAD mutant I177L. The class given is biochemical, A. thaliana. As to the method:
as §1, §2, §3, §4

In the next experiment the test system is AteDHAD. On the set-up: method as in PMID 29995859. The note with it: housekeeping DHAD from A. terreus (XP_001208445.1); cited from earlier work.
A further experiment has as its target T6, AthDHAD-I177L-V496L (Arabidopsis thaliana, UniProt Q9LIR4, I211L/V530L).
T6 construct: made in house; host or cells: E. coli BL21(DE3)
The experiment can be described thus: In vitro activity and AA inhibition assay of AthDHAD double mutant I177L/V496L. Type of experiment: biochemical, A. thaliana. As to the method:
as §1, §2, §3, §4

Another experiment addresses T7, AthDHAD-V497F (Arabidopsis thaliana, UniProt Q9LIR4, V531F).
T7 construct: made in house; host or cells: E. coli BL21(DE3)
Nature of the experiment: In vitro activity and AA inhibition assay of AthDHAD mutant V497F. The note with it: DHI as substrate (10 mM), 0.5 μM enzyme. The class given is biochemical, A. thaliana. As to the method: as §1, §2, §3, §4

Another experiment deals with T8, AthDHAD-V497L (Arabidopsis thaliana, UniProt Q9LIR4, V531L).
T8 construct: made in house; host or cells: E. coli BL21(DE3)
T8 sequence (Q9LIR4 35-608 V531L): as the sequence (Q9LIR4 35-608 I211L) above, with L177I, V497L counted along it
Nature of the experiment: In vitro activity and AA inhibition assay of AthDHAD mutant V497L. Type of experiment: biochemical, A. thaliana. How it is done:
as §1, §2, §3, §4

Experiment [2] concerns Transgenic A. thaliana expressing AstD. On the set-up: method as in PMID 29995859. Particulars: cited from earlier work.
The target of a further experiment is T9, AthDHAD-V496F (Arabidopsis thaliana, UniProt Q9LIR4, V530F).
T9 construct: made in house; host or cells: E. coli BL21(DE3)
T9 sequence (Q9LIR4 35-608 V530F): as the sequence (Q9LIR4 35-608 I211L) above, with L177I, V496F counted along it
The experiment can be described thus: In vitro activity and AA inhibition assay of AthDHAD mutant V496F. The class given is biochemical, A. thaliana. How it is done:
as §1, §2, §3, §4

Another experiment deals with A. thaliana. On the set-up: method as in PMID 29995859. The note with it: A. thaliana as a model plant organism; cited from earlier work.
The next experiment addresses T10, AthDHAD-V178W (Arabidopsis thaliana, UniProt Q9LIR4, V212W).
T10 construct: made in house; host or cells: E. coli BL21(DE3)
The experiment can be described thus: In vitro activity and AA inhibition assay of AthDHAD mutant V178W. Type of experiment: biochemical, A. thaliana. Particulars: DHI as substrate (10 mM), 0.5 μM enzyme. As to the method: as §1, §2, §3, §4

Another experiment addresses T11, AthDHAD-V178F (Arabidopsis thaliana, UniProt Q9LIR4, V212F).
T11 construct: made in house; host or cells: E. coli BL21(DE3)
The experiment can be described thus: In vitro activity and AA inhibition assay of AthDHAD mutant V178F. Particulars: DHI as substrate (10 mM), 0.5 μM enzyme. The class given is biochemical, A. thaliana. As to the method: as §1, §2, §3, §4

Another experiment deals with T12, AthDHAD-I177L-V497L (Arabidopsis thaliana, UniProt Q9LIR4, I211L/V531L).
T12 construct: made in house; host or cells: E. coli BL21(DE3)
T12 sequence (Q9LIR4 35-608 I211L/V531L): as the sequence (Q9LIR4 35-608 I211L) above, with V497L counted along it
The experiment can be described thus: In vitro activity and AA inhibition assay of AthDHAD double mutant I177L/V497L. Type of experiment: biochemical, A. thaliana. How it is done:
as §1, §2, §3, §4

For experiment [3], the target named is T1, AthDHAD. The note with it: cited from earlier work.
Experiment [4] concerns A. thaliana transgenic lines with mutant AthDHAD (V178L and V496L). Nature of the experiment: Growth inhibition of AA on transgenic A. thaliana with mutant AthDHAD (V178L and V496L). The class given is in vivo. The note with it: 100 μM AA on Murashige and Skoog medium, day 7; V178L and V496L lines compared to line expressing AstD. An excerpt: The gene block containing DHAD variants, and the 2XFLAG-tag was synthesized and then cloned into modified pEG302 vector using Gateway LR Clonase II Enzyme Mix (Thermo Fisher Scientific). Ubiquitin-10 promoter was used to drive the expression of DHAD variants. The construct was electrotransformed into Agrobacterium tumefaciens strain Agl0 and then transformed into A. thaliana rdr6-15 in which the transgene silencing pathway is blocked. Positive transgenic plants were selected using the hygromycin B and were tested for survival in the presence of AA.
A. thaliana seeds were sterilized with 70% ethanol and sown on Murashige and Skoog medium supplemented with either ethanol control or 100 μM AA. Photos were taken, and fresh weights were measured at day 7.

In a further experiment the target is T13, AthDHAD-V496L (Arabidopsis thaliana, UniProt Q9LIR4, V530L).
T13 construct: made in house; host or cells: E. coli BL21(DE3)
T13 sequence (Q9LIR4 35-608 V530L): as the sequence (Q9LIR4 35-608 I211L) above, with L177I, V496L counted along it
Nature of the experiment: In vitro activity and AA inhibition assay of AthDHAD mutant V496L. Type of experiment: biochemical, A. thaliana. Particulars: DHI as substrate (10 mM), 0.5 μM enzyme. How it is done: as §1, §2, §3, §4

The target of another experiment is T14, AthDHAD-V496I (Arabidopsis thaliana, UniProt Q9LIR4, V530I).
T14 construct: made in house; host or cells: E. coli BL21(DE3)
T14 sequence (Q9LIR4 35-608 V530I): as the sequence (Q9LIR4 35-608 I211L) above, with L177I, V496I counted along it
The experiment can be described thus: In vitro activity and AA inhibition assay of AthDHAD mutant V496I. The class given is biochemical, A. thaliana. As to the method: as §1, §2, §3, §4

The next experiment addresses T15, AthDHAD-V178L (Arabidopsis thaliana, UniProt Q9LIR4, V212L).
T15 construct: made in house; host or cells: E. coli BL21(DE3)
Nature of the experiment: In vitro activity and AA inhibition assay of AthDHAD mutant V178L. Type of experiment: biochemical, A. thaliana. Particulars: DHI as substrate (10 mM), 0.5 μM enzyme. How it is done: as §1, §2, §3, §4

Another experiment has as its target T16, AthDHAD-I177F (Arabidopsis thaliana, UniProt Q9LIR4, I211F).
T16 construct: made in house; host or cells: E. coli BL21(DE3)
The experiment can be described thus: In vitro activity and AA inhibition assay of AthDHAD mutant I177F. The class given is biochemical, A. thaliana. How it is done:
as §1, §2, §3, §4

T11 sequence (Q9LIR4 35-608 V212F): as the sequence (Q9LIR4 35-608 I211L) above, with L177I, V178F counted along it
T15 sequence (Q9LIR4 35-608 V212L): as the sequence (Q9LIR4 35-608 I211L) above, with L177I, V178L counted along it
T4 sequence (Q9LIR4 35-608 V531I): as the sequence (Q9LIR4 35-608 I211L) above, with L177I, V497I counted along it
T7 sequence (Q9LIR4 35-608 V531F): as the sequence (Q9LIR4 35-608 I211L) above, with L177I, V497F counted along it
T10 sequence (Q9LIR4 35-608 V212W): as the sequence (Q9LIR4 35-608 I211L) above, with L177I, V178W counted along it
T3 sequence (Q9LIR4 35-608 V212I): as the sequence (Q9LIR4 35-608 I211L) above, with L177I, V178I counted along it
T2 sequence (Q9LIR4 35-608 V212L/V531L): as the sequence (Q9LIR4 35-608 I211L) above, with L177I, V178L, V497L counted along it
T16 sequence (Q9LIR4 35-608 I211F): as the sequence (Q9LIR4 35-608 I211L) above, with L177F counted along it
T6 sequence (Q9LIR4 35-608 I211L/V530L): as the sequence (Q9LIR4 35-608 I211L) above, with V496L counted along it

A word on the Km: it is the concentration of substrate that gives half-maximal velocity. In general, kcat refers to the number of substrate molecules converted per active site and unit of time at saturation. Regarding `CC[C@@](C)(O)[C@@H](O)C(=O)O` (racemic) [DHMV, (±)-sodium-α,β-dihydroxymethylvalerate hydrate, reference compound], at AthDHAD [1] (substrate DHMV), the Km was found to be 4 ± 0.45 mM and the kcat stood at 6.50 ± 0.32 s⁻¹.

In general, IC50 refers to the concentration that gives 50% inhibition. Lower therefore signals higher potency. In general, Ki refers to a dissociation constant, usually derived from enzyme kinetics or from competition with a known ligand. With `CC(C)=C1CCC23COC(C2)C(O)(C(=O)O)CCC13` (centres unmarked) [AA, aspterric acid], the IC50 against AthDHAD-V178L-V497L is 0.396 ± 0.011 µM; at AthDHAD-V178I it was 0.43 µM and 0.431 µM; on AthDHAD-V497I, 0.0733 µM and 0.073 µM; at AthDHAD-I177L, 0.05 ± 0.001 µM; against AthDHAD-I177L-V496L, 0.309 ± 0.074 µM; on AthDHAD-V497F, 1.25 µM. In addition, the half-inhibitory concentration (IC50) was 0.059 µM on AthDHAD-V497L; 2.94 µM against AthDHAD-V496F; 2.34 µM at AthDHAD-V178W; 6 µM and 5.99 µM against AthDHAD-V178F; 0.25 µM and 0.249 µM against AthDHAD [1] (DHI as substrate (10 mM), 0.5 μM enzyme); 0.028 µM at AthDHAD-I177L-V497L. Moreover, the IC50 against AthDHAD-V496L is 0.82 µM and 0.824 µM; at AthDHAD-V496I, 1.14 ± 0.052 µM; at AthDHAD-V178L, 0.97 µM and 0.974 µM; against AthDHAD-I177F, 37 ± 8.77 µM. The “AA resistance observed in AstD” value with AstD (reported) was “over 8 mM”. In the experiment on AstD (within the solubility limit (8 mM)), the “sensitivity of AstD to AA” value is recorded as “completely insensitive”. Also, the mode of inhibition result in the experiment with AteDHAD and at AthDHAD [3] (housekeeping DHAD from A. thaliana (AT3G23940)) was “competitive inhibitor” in each case. Moreover, the “resistance of transgenic plants to AA” value in [2] is “strong resistance”. Also, the “herbicidal effect in spray experiments” value in the experiment with A. thaliana was “effective as an herbicide”. Further, the Ki on AthDHAD [3] (binding of AA to AthDHAD as a competitive inhibitor) is about 0.3 µM. In experiment [4], the “growth of transgenic plants in the presence of AA” value was “not able to rescue the growth of the plants”.
